Measurements reported in ChEMBL document CHEMBL3992516, “Synthesis and SAR evaluation of novel thioridazine derivatives active against drug-resistant tuberculosis” (Eur J Med Chem, 2017).
Values after ≈ are worked out from the molar mass of the structure shown.

Test system: Mycobacterium tuberculosis variant bovis
Assay: Antimycobacterial activity against Mycobacterium bovis BCG Pasteur ATCC 35734 by microplate alamar blue assay
Assay type: functional

| Compound | MIC [µg/mL] |
| --- | --- |
| CN1CCCCC1CCN1c2ccccc2Sc2ccc(Cl)cc21 (stereo unspecified) | 8 (≈ 22.3 µM) |
| CN1CCCCC1CCn1c2ccccc2c2ccccc21 (stereo unspecified) | > 64 |
| CN1CCCCC1CCn1cnc2ccccc21 (stereo unspecified) | > 64 |
| c1ccc2c(c1)ccn2CCC1CCCCN1 (stereo unspecified) | 64 (≈ 280 µM) |
| CSc1ccc2c(c1)N(CCCN1CCN(C)CC1)c1ccccc1S2 | 8 (≈ 20.7 µM) |
| Clc1ccc2c(c1)N(CCCN1CCN(c3ccccc3)CC1)c1ccccc1S2 | > 64 |
| Clc1ccc2c(c1)N(CCCN1CCSCC1)c1ccccc1S2 | > 64 |
| c1ccc2c(c1)c1ccccc1n2CCC1CCCCN1 (stereo unspecified) | > 64 |
| CN1CCCCC1CCN1c2ccccc2Sc2ccccc21 (stereo unspecified) | 64 (≈ 197 µM) |
| c1ccc(N2CCN(CCCN3c4ccccc4Sc4ccccc43)CC2)cc1 | > 64 |
| CCCN1CCCCC1CCN1c2ccccc2Sc2ccc(SC)cc21 (stereo unspecified) | 64 (≈ 161 µM) |
| CSc1ccc2c(c1)N(CCC1CCCCN1C(C)C)c1ccccc1S2 (stereo unspecified) | > 64 |
| c1ccc2c(c1)Sc1ccccc1N2CCC1CCCCN1 (stereo unspecified) | > 64 |
| c1ccc2c(c1)ncn2CCC1CCCCN1 (stereo unspecified) | > 64 |
| CSc1ccc2c(c1)N(CCCN1CCN(c3ccccc3)CC1)c1ccccc1S2 | > 64 |
| CSc1ccc2c(c1)N(CCCN1CCN(C34CC5CC(CC(C5)C3)C4)CC1)c1ccccc1S2 | 64 (≈ 127 µM) |
| CSc1ccc2c(c1)N(CCC1CCCCN1)c1ccccc1S2 (stereo unspecified) | 8 (≈ 22.4 µM) |
| CSc1ccc2c(c1)N(C(=O)CN1CCN(C)CC1)c1ccccc1S2 | > 64 |
| Clc1ccc2c(c1)N(CCC1CCCCN1)c1ccccc1S2 (stereo unspecified) | 5.3 (≈ 15.4 µM) |
| CSc1ccc2c(c1)N(CCCN1CCN(C3C4CC5CC(C4)CC3C5)CC1)c1ccccc1S2 (stereo unspecified) | > 64 |
| CN1CCN(CCCn2ccc3ccccc32)CC1 | > 64 |
| CSc1ccc2c(c1)N(CCCN1CCSCC1)c1ccccc1S2 | > 64 |
| CSc1ccc2c(c1)N(CCC1CCCCN1Cc1ccccc1)c1ccccc1S2 (stereo unspecified) | 8 (≈ 17.9 µM) |
| NNC(=O)c1ccncc1 [ISONIAZID] | 0.063 (≈ 0.459 µM) |
| CN1CCN(CCCN2c3ccccc3Sc3ccccc32)CC1 [PERAZINE] | 64 (≈ 189 µM) |
| CSc1ccc2c(c1)N(CCC1CCCCN1C)c1ccccc1S2 (stereo unspecified) [THIORIDAZINE] | 16 (≈ 43.2 µM) |
